Measurements reported in ChEMBL document CHEMBL1138128, “Phenolic P2/P3 core motif as thrombin inhibitors--design, synthesis, and X-ray co-crystal structure” (Bioorg Med Chem Lett, 2006).

What follows are compounds tested against Prothrombin (Homo sapiens, UniProt P00734) (assay: Inhibitory activity against thrombin).

IC50 | SMILES
570 nM | Cc1ccc(NCS(=O)(=O)c2ccccc2)c(O)c1CC(=O)NCc1ccc(N)nc1C.Cl
2400 nM | Cc1ccc(NCNC(=O)c2ccccc2)c(O)c1CC(=O)NCc1ccc(C(=N)N)cc1.Cl
82 nM | Cc1ccc(NS(=O)(=O)c2ccc(Cl)cc2F)c(O)c1CC(=O)NCc1ccc(C(=N)N)cc1.Cl
4700 nM | Cc1ccc(NCC(=O)c2ccccc2)c(O)c1CC(=O)NCc1ccc(C(=N)N)cc1.Cl
1000 nM | Cc1ccc(NS(=O)(=O)c2cc(Cl)ccc2Cl)c(O)c1CC(=O)NCc1ccnc(N)c1.Cl
15000 nM | Cc1ccnc(CNC(=O)Cc2c(C)ccc(NCS(=O)(=O)c3cccc(Cl)c3)c2O)c1F
20000 nM | Cc1ccc(S(=O)(=O)Nc2ccc(C)c(CC(=O)NCc3nccc(C)c3F)c2O)cc1Cl
50 nM | COc1ccc(S(=O)(=O)Nc2ccc(C)c(CC(=O)NCc3ccc(C(=N)N)cc3)c2O)cc1.Cl
190 nM | Cc1ccc(NS(=O)(=O)c2cccc(Cl)c2C)c(O)c1CC(=O)NCc1ccc(N)nc1C.Cl
14000 nM | Cc1ccnc(CNC(=O)Cc2c(C)ccc(NS(=O)(=O)c3cccc(Cl)c3)c2O)c1F
25 nM | Cc1ccc(C)c(S(=O)(=O)Nc2ccc(C)c(CC(=O)NCc3ccc(C(=N)N)cc3)c2O)c1.Cl
3000 nM | Cc1ccc(NS(=O)(=O)c2ccccc2Cl)c(O)c1CC(=O)NCc1ccnc(N)c1.Cl
260 nM | Cc1ccccc1S(=O)(=O)Nc1ccc(C)c(CC(=O)NCc2ccc(N)nc2C)c1O.Cl
39 nM | COc1ccc(S(=O)(=O)Nc2ccc(C)c(CC(=O)NCc3ccc(C(=N)N)cc3)c2O)cc1OC.Cl
250 nM | Cc1ccc(S(=O)(=O)Nc2ccc(C)c(CC(=O)NCc3ccc(C(=N)N)cc3)c2O)cc1.Cl
130 nM | Cc1ccc(NS(=O)(=O)c2ccc(Cl)cc2)c(O)c1CC(=O)NCc1ccc(C(=N)N)cc1.Cl
190 nM | Cc1ccc(NCS(=O)(=O)c2ccccc2)c(O)c1CC(=O)NCc1ccc(C(=N)N)cc1.Cl
97 nM | Cc1ccc(NS(=O)(=O)c2ccccc2)c(O)c1CC(=O)NCc1ccc(C(=N)N)cc1.Cl
590 nM | Cc1ccc(S(=O)(=O)Nc2ccc(C)c(CC(=O)NCc3ccc(N)nc3C)c2O)cc1F.Cl
120 nM | Cc1ccc(NS(=O)(=O)c2cccc(C(F)(F)F)c2)c(O)c1CC(=O)NCc1ccc(C(=N)N)cc1.Cl

SMILES | IC50
COc1cccc(S(=O)(=O)Nc2ccc(C)c(CC(=O)NCc3ccc(C(=N)N)cc3)c2O)c1.Cl | 16 nM

These compounds were tested against Trypsin (Homo sapiens, UniProt P07477+P07478+P35030) (assay: Inhibitory activity against trypsin).
Type: protein assay

IC50 | SMILES
> 44000 nM | Cc1ccc(NCS(=O)(=O)c2ccccc2)c(O)c1CC(=O)NCc1ccc(N)nc1C.Cl
2700 nM | Cc1ccc(NCNC(=O)c2ccccc2)c(O)c1CC(=O)NCc1ccc(C(=N)N)cc1.Cl
680 nM | Cc1ccc(NS(=O)(=O)c2ccc(Cl)cc2F)c(O)c1CC(=O)NCc1ccc(C(=N)N)cc1.Cl
4000 nM | Cc1ccc(NCC(=O)c2ccccc2)c(O)c1CC(=O)NCc1ccc(C(=N)N)cc1.Cl
> 44000 nM | Cc1ccc(NS(=O)(=O)c2cc(Cl)ccc2Cl)c(O)c1CC(=O)NCc1ccnc(N)c1.Cl
> 44000 nM | Cc1ccnc(CNC(=O)Cc2c(C)ccc(NCS(=O)(=O)c3cccc(Cl)c3)c2O)c1F
> 44000 nM | Cc1ccc(S(=O)(=O)Nc2ccc(C)c(CC(=O)NCc3nccc(C)c3F)c2O)cc1Cl
910 nM | COc1ccc(S(=O)(=O)Nc2ccc(C)c(CC(=O)NCc3ccc(C(=N)N)cc3)c2O)cc1.Cl
> 44000 nM | Cc1ccc(NS(=O)(=O)c2cccc(Cl)c2C)c(O)c1CC(=O)NCc1ccc(N)nc1C.Cl
> 44000 nM | Cc1ccnc(CNC(=O)Cc2c(C)ccc(NS(=O)(=O)c3cccc(Cl)c3)c2O)c1F
110 nM | Cc1ccc(C)c(S(=O)(=O)Nc2ccc(C)c(CC(=O)NCc3ccc(C(=N)N)cc3)c2O)c1.Cl
> 44000 nM | Cc1ccc(NS(=O)(=O)c2ccccc2Cl)c(O)c1CC(=O)NCc1ccnc(N)c1.Cl
> 44000 nM | Cc1ccccc1S(=O)(=O)Nc1ccc(C)c(CC(=O)NCc2ccc(N)nc2C)c1O.Cl
340 nM | COc1ccc(S(=O)(=O)Nc2ccc(C)c(CC(=O)NCc3ccc(C(=N)N)cc3)c2O)cc1OC.Cl
1100 nM | Cc1ccc(S(=O)(=O)Nc2ccc(C)c(CC(=O)NCc3ccc(C(=N)N)cc3)c2O)cc1.Cl
940 nM | Cc1ccc(NS(=O)(=O)c2ccc(Cl)cc2)c(O)c1CC(=O)NCc1ccc(C(=N)N)cc1.Cl
3100 nM | Cc1ccc(NCS(=O)(=O)c2ccccc2)c(O)c1CC(=O)NCc1ccc(C(=N)N)cc1.Cl
600 nM | Cc1ccc(NS(=O)(=O)c2ccccc2)c(O)c1CC(=O)NCc1ccc(C(=N)N)cc1.Cl
> 44000 nM | Cc1ccc(S(=O)(=O)Nc2ccc(C)c(CC(=O)NCc3ccc(N)nc3C)c2O)cc1F.Cl
2800 nM | Cc1ccc(NS(=O)(=O)c2cccc(C(F)(F)F)c2)c(O)c1CC(=O)NCc1ccc(C(=N)N)cc1.Cl
1100 nM | Cc1ccc(NS(=O)(=O)c2cccc3ccccc23)c(O)c1CC(=O)NCc1ccc(C(=N)N)cc1.Cl

SMILES | IC50
COc1cccc(S(=O)(=O)Nc2ccc(C)c(CC(=O)NCc3ccc(C(=N)N)cc3)c2O)c1.Cl | 280 nM
